Source: BigSolDB 2.1

CC(=O)Nc1ccc(OC(=O)c2ccccc2OC(C)=O)cc1
solubility (mole fraction)
Conditions | 278.15 K | 283.15 K | 288.15 K | 293.15 K | 298.15 K | 303.15 K | 308.15 K | 313.15 K | 318.15 K
in DMF | 0.0175 | 0.0187 | 0.0201 | 0.0214 | 0.0229 | 0.0244 | 0.0258 | 0.0274 | 0.029
in NMP | 0.0222 | 0.0255 | 0.0289 | 0.0326 | 0.0368 | 0.041 | 0.0461 | 0.0515 | 0.0571
in ethanol | 0.000261 | 0.00035 | 0.000454 | 0.000588 | 0.000755 | 0.000947 | 0.0012 | 0.00151 | 0.00191
in isopropanol | 0.000141 | 0.000191 | 0.000257 | 0.000346 | 0.000456 | 0.000604 | 0.000781 | 0.00103 | 0.00131
in water | 5.59e-07 | 8.56e-07 | 1.19e-06 | 1.74e-06 | 2.45e-06 | 3.49e-06 | 4.82e-06 | 6.74e-06 | 8.99e-06
